Measurements as given in US20170190671A1, “BIS(ARYL)CATECHOL DERIVATIVES AS HERBICIDES” (E I DU PONT DE NEMOURS AND COMPANY, priority 2014, published 2017).

Key:
Format in all cases: in vivo
[1] = tested on: pigweed (Amaranthus retroflexus); assay: Test C preemergence; conditions: Amaranthus retroflexus, pre-emergence, 336 h, scale 0 to 100, read-out: Plant response rating, Pigweed
From the text: (§1) Seeds of plant species selected from blackgrass (Alopecurus myosuroides), Italian ryegrass (Lolium multiflorum), winter wheat (Triticum aestivum), galium (catchweed bedstraw, Galium aparine), corn (Zea mays), large (Lg) crabgrass (Digitaria sanguinalis), giant foxtail (Setaria faberii), johnsongrass (Sorghum halepense), lambsquarters (Chenopodium album), morningglory (Ipomoea coccinea), yellow nutsedge (Cyperus esculentus), pigweed (Amaranthus retroflexus), ragweed (common ragweed, Ambrosia elatior), soybean (Glycine max), barnyardgrass (Echinochloa crus-galli), oilseed rape (Brassica napus), waterhemp (common waterhemp, Amaranthus rudis), and velvetleaf (Abutilon theophrasti) were planted into a blend of loam soil and sand and treated preemergence with test chemicals formulated in a non-phytotoxic solvent mixture which included a surfactant.
(§2) At the same time, plants selected from these crop and weed species and also chickweed (common chickweed, Stellaria media), kochia (Kochia scoparia), and wild oat (Avena fatua), were planted in pots containing Redi-Earth® planting medium (Scotts Company, 14111 Scottslawn Road, Marysville, Ohio 43041) comprising spaghnum peat moss, vermiculite, wetting agent and starter nutrients and treated with postemergence applications of test chemicals formulated in the same manner. Plants ranged in height from 2 to 18 cm (1- to 4-leaf stage) for postemergence treatments. Treated plants and controls were maintained in a greenhouse for 13 to 15 days, after which time all species were compared to controls and visually evaluated. Plant response ratings, summarized in Table C, are based on a scale of 0 to 100 where 0 is no effect and 100 is complete control. A dash (-) response means no test result.

[2] = tested on: johnsongrass (Sorghum halepense); assay: Test C preemergence; conditions: Sorghum halepense, pre-emergence, 336 h, scale 0 to 100, read-out: Plant response rating, Johnsongrass
From the text: as §1, §2

[3] = tested on: morningglory (Ipomoea coccinea); assay: Test C preemergence; conditions: Ipomoea, pre-emergence, 336 h, scale 0 to 100, read-out: Plant response rating, Morningglory
From the text: as §1, §2

[4] = tested on: pigweed (Amaranthus retroflexus); assay: Test C postemergence; conditions: Amaranthus retroflexus, post-emergence, 336 h, Postemergence, scale 0 to 100, read-out: Plant response rating, Pigweed
Procedure, shortened: (§3)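 Greenhouse test, preemergence on seeded soil or postemergence on 1- to 4-leaf plants. Response is a visual 0-100 rating versus controls, taken 13-15 days after treatment.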

[5] = tested on: velvetleaf (Abutilon theophrasti); assay: Test C postemergence; conditions: Abutilon theophrasti, post-emergence, Postemergence, scale 0 to 100, read-out: Plant response rating, Velvetleaf
Procedure, shortened: as §3

[6] = tested on: ragweed (common ragweed, Ambrosia elatior); assay: Test C postemergence; conditions: Ambrosia artemisiifolia, post-emergence, 336 h, Postemergence, scale 0 to 100, read-out: Plant response rating, Ragweed
Procedure, shortened: as §3

soybean (Glycine max) = assay: Test C postemergence; conditions: Glycine max, post-emergence, Postemergence, scale 0 to 100, read-out: Plant response rating, Soybean
Procedure, shortened: as §3

[7] = tested on: large (Lg) crabgrass (Digitaria sanguinalis); assay: Test C postemergence; conditions: Digitaria sanguinalis, post-emergence, 336 h, Postemergence, scale 0 to 100, read-out: Plant response rating, Crabgrass, Large
Procedure, shortened: as §3

[8] = tested on: barnyardgrass (Echinochloa crus-galli); assay: Test C postemergence; conditions: Echinochloa crus-galli, post-emergence, Postemergence, scale 0 to 100, read-out: Plant response rating, Barnyardgrass
Procedure, shortened: as §3

kochia (Kochia scoparia) = assay: Test C postemergence; conditions: Bassia scoparia, post-emergence, Postemergence, scale 0 to 100, read-out: Plant response rating, Kochia
Procedure, shortened: as §3

[9] = tested on: chickweed (common chickweed, Stellaria media); assay: Test C postemergence; conditions: Stellaria media, post-emergence, Postemergence, scale 0 to 100, read-out: Plant response rating, Chickweed
Procedure, shortened: as §3

[10] = tested on: waterhemp (common waterhemp, Amaranthus rudis); assay: Test C postemergence; conditions: Amaranthus tuberculatus, post-emergence, Postemergence, scale 0 to 100, read-out: Plant response rating, Waterhemp
Procedure, shortened: as §3

[11] = tested on: winter wheat (Triticum aestivum); assay: Test C postemergence; conditions: Triticum aestivum, post-emergence, 336 h, Postemergence, scale 0 to 100, read-out: Plant response rating, Wheat
Procedure, shortened: as §3

corn (Zea mays) = assay: Test C postemergence; conditions: Zea mays, post-emergence, 336 h, Postemergence, scale 0 to 100
Procedure, shortened: as §3

[12] = tested on: oilseed rape (Brassica napus); assay: Test C postemergence; conditions: Brassica napus, post-emergence, Postemergence, scale 0 to 100, read-out: Plant response rating, Oilseed Rape
Procedure, shortened: as §3

[13] = tested on: giant foxtail (Setaria faberii); assay: Test C postemergence; conditions: Setaria faberi, post-emergence, 336 h, Postemergence, scale 0 to 100, read-out: Plant response rating, Foxtail, Giant
Procedure, shortened: as §3

[14] = tested on: yellow nutsedge (Cyperus esculentus); assay: Test C postemergence; conditions: Cyperus, post-emergence, 336 h, Postemergence, scale 0 to 100, read-out: Plant response rating, Nutsedge, Yellow
Procedure, shortened: as §3

[15] = tested on: lambsquarters (Chenopodium album); assay: Test C postemergence; conditions: Chenopodium album, post-emergence, 336 h, Postemergence, scale 0 to 100, read-out: Plant response rating, Lambsquarters
Procedure, shortened: as §3

[16] = tested on: blackgrass (Alopecurus myosuroides); assay: Test C postemergence; conditions: Alopecurus myosuroides, post-emergence, 336 h, Postemergence, scale 0 to 100, read-out: Plant response rating, Blackgrass
Procedure, shortened: as §3

[17] = tested on: johnsongrass (Sorghum halepense); assay: Test C postemergence; conditions: Sorghum halepense, post-emergence, 336 h, Postemergence, scale 0 to 100, read-out: Plant response rating, Johnsongrass
Procedure, shortened: as §3

[18] = tested on: galium (catchweed bedstraw, Galium aparine); assay: Test C postemergence; conditions: Galium, post-emergence, 336 h, Postemergence, scale 0 to 100, read-out: Plant response rating, Galium
Procedure, shortened: as §3

[19] = tested on: morningglory (Ipomoea coccinea); assay: Test C postemergence; conditions: Ipomoea, post-emergence, 336 h, Postemergence, scale 0 to 100, read-out: Plant response rating, Morningglory
Procedure, shortened: as §3

SMILES: N#Cc1cccc(Oc2ncc(Cl)cn2)c1Oc1ncc(Br)cn1 [Compound 4, 2-[(5-bromo-2-pyrimidinyl)oxy]-3-[(5-chloro-2-pyrimidinyl)oxy]benzonitrile]
- pest or weed control at 31 g/ha ([1]; 31 g ai/ha, preemergence): 100%
- pest or weed control at 62 g/ha ([1]; 62 g ai/ha, preemergence): 70%
- pest or weed control at 125 g/ha ([1]; 125 g ai/ha, preemergence): 100%
- pest or weed control at 16 g/ha ([1]; Preemergence, 16 g ai/ha): 5%
- pest or weed control at 31 g/ha ([2]; 31 g ai/ha, preemergence): 15%
- pest or weed control at 62 g/ha ([2]; 62 g ai/ha, preemergence): 80%
- pest or weed control at 125 g/ha ([2]; 125 g ai/ha, preemergence): 98%
- pest or weed control at 16 g/ha ([2]; Preemergence, 16 g ai/ha): 0%
- pest or weed control at 31 g/ha ([3]; 31 g ai/ha, preemergence): 35%
- pest or weed control at 62 g/ha ([3]; 62 g ai/ha, preemergence): 55%
- pest or weed control at 125 g/ha ([3]; 125 g ai/ha, preemergence): 98%
- pest or weed control at 16 g/ha ([3]; Preemergence, 16 g ai/ha): 5%
- pest or weed control at 31 g/ha ([4]; 31 g ai/ha): 65%
- pest or weed control at 62 g/ha ([4]; 62 g ai/ha): 80%
- pest or weed control at 125 g/ha ([4]; 125 g ai/ha): 95%
- pest or weed control at 31 g/ha ([5]; 31 g ai/ha): 40%
- pest or weed control at 62 g/ha ([5]; 62 g ai/ha): 50%
- pest or weed control at 125 g/ha ([5]; 125 g ai/ha): 60%
- pest or weed control at 31 g/ha ([6]; 31 g ai/ha): 50%
- pest or weed control at 62 g/ha ([6]; 62 g ai/ha): 75%
- pest or weed control at 125 g/ha ([6]; 125 g ai/ha): 85%
- plant injury at 31 g/ha (soybean (Glycine max); 31 g ai/ha): 70%
- plant injury at 62 g/ha (soybean (Glycine max); 62 g ai/ha): 70%
- plant injury at 125 g/ha (soybean (Glycine max); 125 g ai/ha): 70%
- pest or weed control at 16 g/ha ([7]; 16 g ai/ha): 5%
- pest or weed control at 31 g/ha ([7]; 31 g ai/ha): 5%
- pest or weed control at 62 g/ha ([7]; 62 g ai/ha): 5%
- pest or weed control at 125 g/ha ([7]; 125 g ai/ha): 10%
- pest or weed control at 16 g/ha ([8]; 16 g ai/ha): 5%
- pest or weed control at 31 g/ha ([8]; 31 g ai/ha): 5%
- pest or weed control at 62 g/ha ([8]; 62 g ai/ha): 5%
- pest or weed control at 125 g/ha ([8]; 125 g ai/ha): 5%
- pest or weed control at 16 g/ha (kochia (Kochia scoparia); 16 g ai/ha): 60%
- pest or weed control at 31 g/ha (kochia (Kochia scoparia); 31 g ai/ha): 60%
- pest or weed control at 62 g/ha (kochia (Kochia scoparia); 62 g ai/ha): 80%
- pest or weed control at 125 g/ha (kochia (Kochia scoparia); 125 g ai/ha): 100%
- pest or weed control at 16 g/ha ([9]; 16 g ai/ha): 20%
- pest or weed control at 31 g/ha ([9]; 31 g ai/ha): 40%
- pest or weed control at 62 g/ha ([9]; 62 g ai/ha): 50%
- pest or weed control at 125 g/ha ([9]; 125 g ai/ha): 80%
- pest or weed control at 31 g/ha ([10]; 31 g ai/ha): 55%
- pest or weed control at 62 g/ha ([10]; 62 g ai/ha): 75%
- pest or weed control at 125 g/ha ([10]; 125 g ai/ha): 70%
- plant injury at 31 g/ha ([11]; 31 g ai/ha): 0%
- plant injury at 62 g/ha ([11]; 62 g ai/ha): 5%
- plant injury at 125 g/ha ([11]; 125 g ai/ha): 5%
- Corn plant response rating (crop injury, 0 = no effect, 100 = complete kill) at 16 g/ha (corn (Zea mays); 16 g ai/ha): 5%
- Corn plant response rating (crop injury, 0 = no effect, 100 = complete kill) at 31 g/ha (corn (Zea mays); 31 g ai/ha): 5%
- Corn plant response rating (crop injury, 0 = no effect, 100 = complete kill) at 62 g/ha (corn (Zea mays); 62 g ai/ha): 5%
- Corn plant response rating (crop injury, 0 = no effect, 100 = complete kill) at 125 g/ha (corn (Zea mays); 125 g ai/ha): 10%
- plant injury at 31 g/ha ([12]; 31 g ai/ha): 10%
- plant injury at 62 g/ha ([12]; 62 g ai/ha): 45%
- plant injury at 125 g/ha ([12]; 125 g ai/ha): 60%
- pest or weed control at 16 g/ha ([13]; 16 g ai/ha): 40%
- pest or weed control at 31 g/ha ([13]; 31 g ai/ha): 40%
- pest or weed control at 62 g/ha ([13]; 62 g ai/ha): 45%
- pest or weed control at 125 g/ha ([13]; 125 g ai/ha): 35%
- pest or weed control at 31 g/ha ([14]; 31 g ai/ha): 0%
- pest or weed control at 62 g/ha ([14]; 62 g ai/ha): 10%
- pest or weed control at 125 g/ha ([14]; 125 g ai/ha): 10%
- pest or weed control at 16 g/ha ([15]; 16 g ai/ha): 30%
- pest or weed control at 31 g/ha ([15]; 31 g ai/ha): 70%
- pest or weed control at 62 g/ha ([15]; 62 g ai/ha): 80%
- pest or weed control at 125 g/ha ([15]; 125 g ai/ha): 90%
- pest or weed control at 16 g/ha ([16]; 16 g ai/ha): 0%
- pest or weed control at 31 g/ha ([16]; 31 g ai/ha): 0%
- pest or weed control at 62 g/ha ([16]; 62 g ai/ha): 0%
- pest or weed control at 125 g/ha ([16]; 125 g ai/ha): 10%
- pest or weed control at 16 g/ha ([17]; 16 g ai/ha): 5%
- pest or weed control at 31 g/ha ([17]; 31 g ai/ha): 5%
- pest or weed control at 62 g/ha ([17]; 62 g ai/ha): 5%
- pest or weed control at 125 g/ha ([17]; 125 g ai/ha): 5%
- pest or weed control at 16 g/ha ([18]; 16 g ai/ha): 55%
- pest or weed control at 31 g/ha ([18]; 31 g ai/ha): 55%
- pest or weed control at 62 g/ha ([18]; 62 g ai/ha): 60%
- pest or weed control at 125 g/ha ([18]; 125 g ai/ha): 95%
- pest or weed control at 31 g/ha ([19]; 31 g ai/ha): 80%
- pest or weed control at 62 g/ha ([19]; 62 g ai/ha): 85%
- pest or weed control at 125 g/ha ([19]; 125 g ai/ha): 95%
